Test results reported in patent US7504537B2, “Hydroxamic acid derivative and MMP inhibitor containing the same as active ingredient” (Dainippon Sumitomo Pharma Co., Ltd., priority 2001, dated 2009).
pIC50: −log10 of the molar value.

Assays:
MMP-1 = target: T1, MMP-1 (Homo sapiens, UniProt P03956); assay: Test 6 MMP-1 inhibition activity test; format: biochemical; conditions: MMP-1 from human rheumatic synovium fibroblast, activated with AMPA
T1 construct: calbiochem cat; purchased calbiochem 444208; host or cells: human rheumatic synovium fibroblast
T1 sequence (P03956 100-469): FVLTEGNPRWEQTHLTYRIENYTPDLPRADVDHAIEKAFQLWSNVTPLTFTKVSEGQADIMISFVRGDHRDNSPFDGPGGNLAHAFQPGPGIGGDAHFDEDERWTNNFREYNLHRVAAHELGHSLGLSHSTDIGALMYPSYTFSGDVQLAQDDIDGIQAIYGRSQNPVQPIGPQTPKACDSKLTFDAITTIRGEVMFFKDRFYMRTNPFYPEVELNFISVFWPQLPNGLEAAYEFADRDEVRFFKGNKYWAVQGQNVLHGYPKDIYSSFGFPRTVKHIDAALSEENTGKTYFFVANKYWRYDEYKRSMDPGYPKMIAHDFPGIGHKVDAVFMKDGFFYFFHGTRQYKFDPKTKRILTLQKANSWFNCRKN
Description: Test 6 MMP-1 Inhibition Activity Test
MMP-1 (stroma collagenase: EC3.4.24.7, human rheumatic synovium fibroblast, calbiochem cat. 444208) was activated with AMPA at 37° C. for 60 minutes. A test compound was preincubated with activated MMP-1 at 37° C. for 60 minutes in the reaction mixture containing 50 mM MOPS (pH 7.2), 10 mM aqueous calcium chloride solution, and 10 μM zinc chloride. Thereto was added 25 μM Mca-Pro-Leu-Dpa-Ala-Arg-NH2, and the mixture was incubated at 37° C. for 120 minutes. The enzyme activity was measured by fluorescence intensity of Mca-Pro-Leu-Gly, and IC50 was calculated.

[1] = tested on: degeneration of cartilage; assay: Test 8 Rat meniscectomy model test (in vivo); conditions: male SD (IGS) rats, 50 mg/kg orally once a day for 3 weeks; injured group = 100%
Description: Test 8 Rat Meniscectomy Model Test (in vivo)
For this test male rats (6 weeks old SD (IGS)) were used. A meniscus of joint of a right hind limb was partially removed. Compound of Example 2 was orally administered for 3 weeks once a day in the amount of 50 mg/kg. The tissue speciman of the joint was prepared, and stained with safranin O/first green, and the degeneration of cartilage was evaluated. The degree of the degeneration of cartilage in the test compound group was calculated as 100% of the degree of that in the injured group. Cartilage degeneration rate was 33% (*; p<0.05, Steel-test)

Adjuvant Arthritis = assay: Test 7 Adjuvant arthritis (in vivo); set-up: species or system rat; conditions: Lewis male rats, 50 mg/kg per os once a day for twelve days
Description: Test 7 Adjuvant Arthritis (in vivo) For this test Lewis male rats were used. The suspension prepared by suspending Mycobacterium butyricum in liquid paraffin in concentration of 0.5% was subcutaneously injected in a right hind paw. Ten days later the rats in which the definite secondary inflammation on a left hind paw was observed were selected, and to the rats the compound (Example 2) suspended in 0.5% methyl cellulose was orally administered for twelve successive days once a day. Five hours later after finishing administration the volume of the hind paws was compared with the volume when the administration was initiated, and the inhibition activity of edema was evaluated based on this difference.

Row | SMILES | pIC50 (MMP-1) | also measured
1 | CC(C)CN(C1(C(=O)NO)CCCC1)S(=O)(=O)c1ccc(Oc2ccc(S(C)(=O)=O)cc2)cc1 [Example 2, N-hydroxy 1-[isobutyl({4-[4-(methylsulfonyl)phenoxy]phenyl}sulfonyl)amino]cyclopentanecarboxamide] | 5.14 | Cartilage degeneration rate [1]: 33%; Increase of edema, Non injected limb (Adjuvant Arthritis; control 1.07 ± 0.31): 0.74 ± 0.16 mL; Increase of edema, Injected limb (Adjuvant Arthritis; control −0.24 ± 0.45): -1.06 ± 0.47 mL
2 | CS(=O)(=O)c1ccc(Oc2ccc(S(=O)(=O)N(Cc3ccccc3)C3(C(=O)NO)CCOCC3)cc2)cc1 [Example 12, 4-[Benzyl({4-[4-(methylsulfonyl)phenoxy]phenyl}sulfonyl)amino]-N-hydroxytetrahydoro-2H-pyrane-4-carboxamide] | < 5.00 | –
3 | CS(=O)(=O)c1ccc(Oc2ccc(S(=O)(=O)NCC(=O)NO)cc2)cc1 [Example 13, N′^1′-Hydroxy-N′^2′-({4-[4-(methylsulfonyl)phenoxy]phenyl}sulfonyl)glycinamide] | < 5.00 | –
4 | CC(C)CN(C1(C(=O)NO)CCC1)S(=O)(=O)c1ccc(Oc2ccc(S(C)(=O)=O)cc2)cc1 [Example 18, N-Hydroxy-1-[isobutyl({4-[4-(methylsulfonyl)phenoxy]phenyl}sulfonyl)amino]cyclobutanecarboxamide] | 5.48 | –
5 | CCOC(=O)CN(CC(=O)NO)S(=O)(=O)c1ccc(Oc2ccc(S(C)(=O)=O)cc2)cc1 [Example 22, Ethyl N-{[(hydroxyamino)carbonyl]methyl}-N-({4-[4-(methylsulfonyl)phenoxy]phenyl}sulfonyl)-glycinate] | < 5.00 | –
6 | CCOC(=O)CN(C1(C(=O)NO)CCCC1)S(=O)(=O)c1ccc(Oc2ccc(S(C)(=O)=O)cc2)cc1 [Example 23, Ethyl N-{1-[(hydroxyamino)carbonyl]cyclopentyl}-N-({4-[4-(methylsulfonyl)phenoxy]phenyl}sulfonyl)glycinate] | < 5.00 | –
7 | CCOC(=O)CCN(C1(C(=O)NO)CCCC1)S(=O)(=O)c1ccc(Oc2ccc(S(C)(=O)=O)cc2)cc1 [Example 26, Ethyl N-{1-[(hydroxyamino)carbonyl]cyclopentyl}-N-({4-[4-(methylsulfonyl)phenoxy]phenyl}sulfonyl)-β-alaninate] | 5.41 | –
8 | CS(=O)(=O)c1ccc(Oc2ccc(S(=O)(=O)N(CC(=O)NO)Cc3ccncc3)cc2)cc1 [Example 42, N′^1′-Hydroxy-N′^2′-({4-[4-(methylsulfonyl)phenoxy]phenyl}sulfonyl)-N′^2′-(4-pyridinylmethyl)glycinamide] | < 5.00 | –
9 | CCOCCN(C1(C(=O)NO)CCCC1)S(=O)(=O)c1ccc(Oc2ccc(S(C)(=O)=O)cc2)cc1 [Example 45, 1-[(2-Ethoxyethyl)({4-[4-(methylsulfonyl)phenoxy]phenyl}sulfonyl)amino]-N-hydroxycyclopentanecarboxamide] | 5.30 | –
